Reference: patent US20260347310A1, “PHENALKYLAMINES AND METHODS OF MAKING AND USING THE SAME” (GILGAMESH PHARMACEUTICALS, INC., priority 2022, published 2026)
Entries after “also recorded” stand apart in the source; their conditions may differ.

Tests used:
5-HT2A receptor [1] = target: T1, 5-HT2A receptor (Homo sapiens, UniProt P28223); test: Radioligand binding at 5-HT2A ([3H]ketanserin); parameters: expressed in transfected cells
Description: (§1) The binding affinities of disclosed compounds at the ketanserin binding site of the 5-HT2A receptor, the LSD binding site of the 5-HT2B receptor, and the mesulergine binding site of the 5-HT2C receptor were determined in radioligand binding experiments.
(§2) Method. The affinity of the test compounds for 5-HT2A, 5-HT2B, and 5-HT2C receptors was determined in radioligand binding experiments with [^3H]ketanserin, [^3H]LSD, and [^3H]mesulergine, respectively, by WuXi AppTec (Hong Kong) Limited, using methods adapted from the literature and under conditions described in Table 7.

5-HT2B receptor = target: T2, 5-HT2B receptor (Homo sapiens, UniProt P41595); test: FLIPR Ca2+ flux functional agonist assay at 5-HT2B; assay type: cell-based; conditions: for Emax: agonist activity, FLIPR Ca2+ flux, HEK293, at max dose, read-out: 5-HT2B % Act @ Max Dose
T2 construct: expressed in transfected cells; host or cells: HEK293
T2 sequence (P41595 whole entry): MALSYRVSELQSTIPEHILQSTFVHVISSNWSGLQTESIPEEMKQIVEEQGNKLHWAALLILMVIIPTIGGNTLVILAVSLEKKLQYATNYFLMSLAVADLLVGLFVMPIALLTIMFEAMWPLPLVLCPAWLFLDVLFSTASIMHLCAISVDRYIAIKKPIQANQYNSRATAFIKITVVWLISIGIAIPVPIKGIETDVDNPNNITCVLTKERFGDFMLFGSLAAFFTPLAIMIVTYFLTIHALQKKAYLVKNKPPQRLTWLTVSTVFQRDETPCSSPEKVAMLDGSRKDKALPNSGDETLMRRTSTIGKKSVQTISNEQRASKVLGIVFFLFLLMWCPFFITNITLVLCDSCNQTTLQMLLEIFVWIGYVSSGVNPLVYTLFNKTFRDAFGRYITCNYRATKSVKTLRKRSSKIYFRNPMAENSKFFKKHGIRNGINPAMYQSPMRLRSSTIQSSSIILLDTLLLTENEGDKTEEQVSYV
Description: (§3) Disclosed compounds were tested for agonist activity at several serotonin receptor subtypes (5-HT2A, […], and 5-HT2C) using Ca^2+ flux functional assays, with the results summarized in Table 9.
(§4) Test Compounds. Compounds were prepared as described above.
(§5) Functional Assays at 5-HT2A and 5-HT2B. Agonist activity at 5-HT2A and 5-HT2B receptors was determined using a FLIPR Ca^2+ flux assay at WuXi AppTec (Hong Kong) Limited according to their standard protocols. Briefly, stably transfected cells expressing the receptor of interest (HEK293 for both 5-HT2A and 5-HT2B) were grown and plated in a 384-well plate and incubated at 37° C. and 5% CO2 overnight. A solution of 250 mM probenecid in 1 mL FLIPR assay buffer was prepared fresh. This was combined with a fluorescent dye (Fluo-4 Direct™) to make a final assay concentration of 2.5 mM. Compounds were diluted 1:3.16 for 10 points and 750 nL was added to a 384 well compound plate using ECHO along with 30 μL assay buffer. The fluorescent dye was then added to the assay plate along with assay buffer to a final volume of 40 μL. The cell plate was incubated for 50 min at 37° C. and 5% CO2 and placed into the FLIPR Tetra along with the compound plate. 10 μL of references and compounds were then transferred from the compound plate into the cell plate and the fluorescent signal was read.

5-HT2C receptor = target: T3, 5-HT2C receptor (Homo sapiens, UniProt P28335); test: Radioligand binding at 5-HT2C ([3H]mesulergine)
T3 sequence (P28335 33-458): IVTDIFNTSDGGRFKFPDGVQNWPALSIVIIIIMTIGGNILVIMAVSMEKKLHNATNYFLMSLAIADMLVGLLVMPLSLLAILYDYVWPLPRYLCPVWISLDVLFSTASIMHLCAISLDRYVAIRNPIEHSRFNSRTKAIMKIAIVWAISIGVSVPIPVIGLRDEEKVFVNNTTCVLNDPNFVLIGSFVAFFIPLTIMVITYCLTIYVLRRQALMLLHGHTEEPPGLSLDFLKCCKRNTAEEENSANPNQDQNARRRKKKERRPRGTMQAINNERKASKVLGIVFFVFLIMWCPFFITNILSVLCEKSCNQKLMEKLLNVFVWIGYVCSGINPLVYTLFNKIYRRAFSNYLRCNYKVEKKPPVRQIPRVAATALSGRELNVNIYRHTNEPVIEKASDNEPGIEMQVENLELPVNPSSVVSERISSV
Description: as §1, §2

5-HT2A receptor [2] = target: T1, 5-HT2A receptor; test: PathHunter beta-arrestin recruitment functional agonist assay at 5-HT2A; assay type: cell-based; parameters: expressed in transfected cells; host or cells: PathHunter cells (Eurofins DiscoverX); conditions: for agonist activity at 5-HT2A in arrestin assay (in words): beta-arrestin recruitment; for Emax: read-out: 5-HT2A Arrestin % Act @ Max Dose
Description: Disclosed compounds were tested for agonist activity at the 5-HT2A receptor using a beta-arrestin (arrestin) recruitment functional assay, with the results summarized in Table 10.
Arrestin Functional Assay at 5-HT2A. Recruitment of beta-arrestin was determined using a PathHunter assay at Eurofins DiscoverX (Fremont, CA) according to their standard protocols. PathHunter GPCR beta-arrestin assays take advantage of DiscoverX's proprietary Enzyme Fragment Complementation technology. The GPCR is fused in frame with a small enzyme donor fragment ProLink™ (PK) and co-expressed in cells stably expressing a fusion protein of beta-arrestin and the larger, N-terminal deletion mutant of beta-galactosidase. Activation of the GPCR (5-HT2A receptor in this case) stimulates binding of beta-arrestin to the PK-tagged GPCR and forces complementation of the two enzyme fragments, resulting in the formation of an active beta-galactosidase enzyme. This interaction leads to an increase in enzyme activity that can be measured using chemiluminescent PathHunter Detection Reagents. Briefly, PathHunter cells expressing 5-HT2A receptors were seeded in a volume of 20 μL into 384-well plates and incubated at 37° C. for the appropriate time prior to testing. For agonist activity determination, cells were incubated with 5 μL of 5× sample in assay buffer and incubated at 37° C. for 90-180 min with a vehicle concentration of 1%. Plates were then imaged on a microplate reader and the agonist activity was calculated using the following formula: % Activity=100%×(mean RLU of test sample−mean RLU of vehicle control)/(mean MAX control ligand−mean RLU of vehicle control), where RLU=relative light units.

[3] = Metabolic stability in dog liver microsomes (DLM); assay type: in vitro ADME, Beagle dogs; conditions: for stability in DLM (in words): 1 μM, 0.50 mg protein/mL, 1 mM NADPH, 37 °C, 60 min; for half-life at 1 µM / microsomal CLint at 1 µM: dog liver microsomes 0.50 mg/mL, NADPH 1 mM, test compound 1 μM, 37° C., pH 7.4, 60 min
Description: as §4
DLM Stability. Pooled DLM from adult male Beagle dogs (Xenotech D1000) were used. Microsomal incubations were carried out in multi-well plates. Liver microsomal incubation medium consisted of PBS (100 mM, pH 7.4), MgCl2 (1 mM), and NADPH (1 mM), with 0.50 mg of liver microsomal protein per mL. Control incubations were performed by replacing the NADPH-cofactor system with PBS. Test compounds (1 μM, final solvent concentration 1.0%) were incubated with microsomes at 37° C. with constant shaking. Six time points over 60 minutes were analyzed, with 60 μL aliquots of the reaction mixture being drawn at each time point. The reaction aliquots were stopped by adding 180 μL of cold (4° C.) acetonitrile containing 200 ng/mL tolbutamide and 200 ng/mL labetalol as internal standards (IS), followed by shaking for 10 minutes, and then protein sedimentation by centrifugation at 4,000 rpm for 20 minutes at 4° C. Supernatant samples (80 μL) were diluted with water (240 μL) and analyzed for parent compound remaining using a fit-for-purpose liquid chromatography-tandem mass spectrometry (LC-MS/MS) method.
Data Analysis. The elimination constant (kel), half-life (t1/2), and intrinsic clearance (CLint) were determined in a plot of […] versus time, using linear regression analysis.

5-HT2A receptor [4] = target: T1, 5-HT2A receptor; test: FLIPR Ca2+ flux functional agonist assay at 5-HT2A; assay type: cell-based; parameters: expressed in transfected cells; host or cells: HEK293; conditions: for agonist activity at 5-HT2A (in words): potency or efficacy; for Emax: HEK293, read-out: 5-HT2A % Act @ Max Dose
Description: as §3, §4, §5

T1 sequence (P28223 whole entry): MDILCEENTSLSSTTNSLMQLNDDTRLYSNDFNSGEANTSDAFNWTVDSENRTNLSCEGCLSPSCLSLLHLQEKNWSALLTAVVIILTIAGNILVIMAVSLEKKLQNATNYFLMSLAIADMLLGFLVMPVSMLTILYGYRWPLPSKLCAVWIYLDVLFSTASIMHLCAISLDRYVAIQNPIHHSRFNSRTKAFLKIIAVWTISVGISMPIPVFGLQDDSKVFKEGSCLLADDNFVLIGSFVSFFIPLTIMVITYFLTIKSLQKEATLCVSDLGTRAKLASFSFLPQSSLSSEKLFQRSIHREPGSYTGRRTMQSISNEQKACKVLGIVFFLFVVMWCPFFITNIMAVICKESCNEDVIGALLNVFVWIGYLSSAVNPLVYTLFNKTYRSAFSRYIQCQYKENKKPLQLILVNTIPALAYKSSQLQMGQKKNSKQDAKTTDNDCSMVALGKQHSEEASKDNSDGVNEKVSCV

SMILES | Ki (5-HT2A receptor [1]) [nM] | binding at 5-HT2A receptors (in words) (5-HT2A receptor [1]; [3H]ketanserin) | EC50 (5-HT2B receptor) [nM] | Emax (5-HT2B receptor) [%] | Ki (5-HT2C receptor) [nM] | selectivity for 5-HT2A over 5-HT2C (in words) (5-HT2C receptor; Ki at 5-HT2C vs Ki at 5-HT2A) | EC50 (5-HT2A receptor [2]) [nM] | agonist activity at 5-HT2A in arrestin assay (in words) (5-HT2A receptor [2]) | Emax (5-HT2A receptor [2]) [%] | stability in DLM (in words) [3] | half-life at 1 µM [3] [min] | microsomal CLint at 1 µM [3] [µL/min/mg] | EC50 (5-HT2A receptor [4]) [nM] | agonist activity at 5-HT2A (in words) (5-HT2A receptor [4]; Ca2+ flux) | Emax (5-HT2A receptor [4]) [%] | selectivity for 5-HT2A (in words) (5-HT2A receptor [1]; 1R, over 5-HT2B and 5-HT2C, compared to 1S) | fold lower affinity at 5-HT2C (5-HT2C receptor; 1R compared to 1S) | CLint and half-life in DLM (in words) ([3]; 1R versus 1S) | fold more potent at 5-HT2A (5-HT2A receptor [4]; 1R compared to 1S, Ca2+ flux)
CCC(N)Cc1cc(OC)c(CCCCCC(F)(F)F)cc1OC (racemic) [Compound 2a, 1-(2,5-dimethoxy-4-(6,6,6-trifluorohexyl)phenyl)butan-2-amine] | 5.4 | potent ligands for 5-HT2A | > 10000 | 4.85 | 61.7 | even higher selectivity than 1R for 5-HT2A over 5-HT2C | 33.2 | higher efficacy in this assay than in the 5-HT2A FLIPR assay | 56.8 | significantly higher stability compared to 1R and 1S | 71.3 | 19.4 | 156 | substantially less potent than 1R and 1S in the 5-HT2A FLIPR assay; also recorded: substantially lower efficacy than 1R or 1S | 36.2 |  |  |  | 
CCCCCCc1cc(OC)c(C[C@H](N)CC)cc1OC [Compound 1R, (R)-1-(4-hexyl-2,5-dimethoxyphenyl)butan-2-amine] | 3.44 |  | > 10000 | 14.8 | 18 |  | 6.23 | substantially more efficacious compared to 1S | 82.5 | substantially less stable than 1S | 11.3 | 122 | 23.1 | Efficacy at 5-HT2A was also greater for 1R compared to 1S | 76.8 | greater selectivity for 5-HT2A | ~ 7 fold | higher CLint and shorter half-life | ~ 2 fold
CCCCCCc1cc(OC)c(C[C@@H](N)CC)cc1OC [Compound 1S, (S)-1-(4-hexyl-2,5-dimethoxyphenyl)butan-2-amine] | 3.34 |  | > 10000 | 16.1 | 2.68 |  | 7.85 |  | 58.5 |  | 22.9 | 60.4 | 43.8 |  | 59.7 |  |  |  | 
